Source: patent publication US7342133B2, “Substituted amino compounds as 5-HT/NA uptake inhibitors” (Gruenenthal GmbH, priority 2004, dated 2008)
pKi: −log10 of the molar value.

Experiments:
[1] = test system: duration of the phase of immobility; experiment: Antidepressant activity in the forced swimming test (Porsolt test) in the mouse; assay type: in vivo; conditions: for Relative duration of the phase of immobility versus control: i.p.
Description: d) Study of Antidepressant Activity in the Forced Swimming Test (Porsolt Test) in the Mouse The studies to determine the antidepressant activity of the compounds of formula I according to the invention were carried out in the forced swimming test (Porsolt test) in the mouse (Porsolt, R. et al., Arch. Int. Pharmacodyn. Vol. 229, p. 327-336 (1977)). Male mice (20-25 g body weight) were placed individually for a period of 6 minutes into a flat water tank from which they were unable to escape and accordingly were forced to swim. After some time, the animals gave up their attempts to swim and entered a phase of immobility. In the interval of from 2 to 6 minutes after introduction of the animal, the duration of the phase of immobility was determined. Test substance and vehicle groups each comprise 10 animals. Changes in the duration of the phase of immobility are stated relative to the vehicle control. Antidepressants induce a shortening of the phase of immobility.

[2] = test system: phenylquinone-induced writhing reactions; experiment: Analgesic activity in the writhing test in the mouse; assay type: in vivo
Description: c) Studies of Analgesic Activity in the Writhing Test in the Mouse
The writhing test in the mouse is a modification of the method according to Hendershot L C, Forsaith, J, J Pharmacol Exp Ther 125: 237-240 (1959).
0.3 ml/animal of a 0.02% aqueous phenylquinone solution, with the addition of 5% ethanol, is administered intraperitoneally to the animals as pain stimulus. This solution is administered 30 minutes (test substance p.o.) or 10 minutes (test substance i.v.) after administration of the test substance. The pain-induced stretching movements (so-called writhing reactions=straightening of the body with extension of the rear extremities) are recorded 5 to 20 minutes after the administration of phenylquinone. The animals treated with the test substance are compared with a control group that received physiological saline. Size of the group n=10.

[3] = test system: formalin-induced nociceptive behaviour (chronic pain component); experiment: Analgesic activity in the formalin test in the mouse; assay type: in vivo
Description: b) Studies of Analgesic Activity in the Formalin Test in the Mouse The formalin test (Dubuisson, D. and Dennis, S. G., 1977, Pain, 4, 161-174) represents a model for acute and chronic pain. In the studies presented here, the chronic pain component was evaluated. By means of a single formalin injection into the dorsal side of a rear paw, a biphase nociceptive reaction is induced in freely mobile test animals; the reaction is assessed by observing three markedly different behaviour patterns. Formalin is injected subcutaneously in a volume of 20 μl and a concentration of 1% into the dorsal side of the right rear paw of each animal. The specific behavioural changes differing from normal behaviour (score 0), such as lifting (score 1) and shaking of the paw (score 2), as well as biting and licking reactions (score 3), are observed and recorded continuously at 3-minute intervals for 60 minutes after the formalin injection. […] The size of the group was 10 animals (n=10). On the basis of the PR calculations, the activity of the substance was determined in percent as the change relative to a control. The ED50 was determined by means of regression analysis.

[4] = test system: 5-HT reuptake; experiment: Inhibition of 5-HT reuptake in rat brain synaptosomes (P2 fraction, medulla + pons region); assay type: biochemical; conditions: for pKi: medulla + pons, Ki from IC50 by Cheng-Prusoff
Description: (§1) a) Studies of the inhibition of 5-HT and NA reuptake
(§2) In order to be able to carry out these in vitro studies, synaptosomes are freshly isolated from areas of rat brain. A so-called “P2” fraction is used in each case, which is prepared exactly according to the procedure of Gray, E. G. and Whittaker, V. P. (J. Anat. 76, 79-88, 1962). For NA reuptake, these vesicular particles are isolated from the hypothalamus of male rat brains, and for 5-HT reuptake, they are isolated from the medulla +pons region.
(§3) The following characteristic data were determined for the NA and 5-HT reuptake: • NA uptake: Km=0.32±0.11 μM • 5-HT uptake: Km=0.084±0.011 μM (in each case N=4, i.e. mean values ± SEM from 4 independent test series which were carried out in triplicate parallel tests).
(§4) A detailed description of the method can be found in the publication of Frink, M., Hennies, H. H., Englberger, W. et al. (Arzneim.-Forsch./Drug Res. 46 (III), 11, 1029-1036, 1996) (the batch can also be carried out on microtitre plates (250 μl/well) at room temperature).
(§5) In addition to % inhibitions at fixed concentrations of test substance (e.g. 1×10^−6 M or 1×10^−5 M in the batch), dose dependencies were also checked. IC50 values were obtained thereby which can be converted into inhibitor constants (Ki) according to the “Cheng-Prusoff equation” (Cheng, Y. C. and Prusoff, W. H., Biochem. Pharmacol. 22, 3099-3108, 1973). The IC50 values were obtained with the aid of the “Figure P” computer program (Version 6.0, Biosoft, Cambridge, England). Km values were calculated according to Lineweaver, H. and Burk, D. (J. Am. Chem. Soc. 56, 658-666, 1934). The “Ligand” computer program (Version 4, Biosoft, England) was used to show KD values.

[5] = test system: NA reuptake; experiment: Inhibition of NA reuptake in rat brain synaptosomes (P2 fraction, hypothalamus); assay type: biochemical; conditions: for pKi: hypothalamus, Ki from IC50 by Cheng-Prusoff
Description: as §1, §2, §3, §4, §5

SMILES	Shortening of the phase of immobility, forced swimming test (in words) [1]	Relative duration of the phase of immobility versus control ([1]; 10 mg/kg)	Relative duration of the phase of immobility versus control ([1]; 21.5 mg/kg)	Relative duration of the phase of immobility versus control ([1]; 31.6 mg/kg, ***p < 0.001)	Relative duration of the phase of immobility versus control ([1]; 46.4 mg/kg, ***p < 0.001)	Inhibition of the nociceptive behaviour, writhing test (in words) [2]	ED50 ([2]; i.v., phenylquinone i.p.)	Inhibition of the nociceptive behaviour, formalin test (in words) [3]	ED50 ([3]; iv, chronic pain component)	Inhibition of 5-HT reuptake (in words) [4]	pKi [4]	Inhibition of NA reuptake (in words) [5]	pKi [5]	melting point
CN(C)CC1=C(Cc2ccc(Cl)cc2)CCCCC1.Cl [Example 1, [2-(4-Chlorobenzyl)-cyclohept-1-enylmethyl]-dimethylamine; hydrochloride]	significant shortening of the phase of immobility	+9%	−34%	−67%***	−76%***	dose-dependent inhibition	3.04 mg/kg	dose-dependent inhibition	4.71 mg/kg	dose-dependent inhibition	8.52	dose-dependent inhibition	7.52	
CN(C)CC1=C(Cc2ccc(Cl)cc2)CCC1.Cl														191 °C
CN(C)CC1=C(Cc2ccc(Cl)cc2)CCCCCC1.Cl [Example 2b, [2-(4-chlorobenzyl)-cyclooct-1enylmethyl]-dimethylamine; hydrochloride]										dose-dependent inhibition	7.52	dose-dependent inhibition	6.47	234 to 237 °C
